Measured values taken from patent US11485720B2, “Anti-infective agents” (University of Dundee, priority 2016, dated 2022).

How the values were obtained:
[1] = molecular target: T1, Plasmodium falciparum lysyl t-RNA synthetase (Pf-KRS1) (Plasmodium falciparum, UniProt Q8IDJ8); assay: Pf-KRS1 inhibition biochemical assay (Kinase-Glo, ATP depletion); settings: read-out: Pf-KRS pIC50 (converted)
T1 construct: Pf KRS1-; made in house; host or cells: E. coli BL21 (DE3)
Outline: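 Recombinant Pf-KRS1 (75 nM working concentration) in HEPES/KOH/MgCl2/KCl buffer with 3 μM ATP, 60 μM L-lysine, 0.4 mg/ml yeast tRNA and pyrophosphatase; compounds at 50 μM–2.5 nM final. Reaction ran 5 h at room temperature, then remaining ATP was read by Kinase-Glo luminescence. IC50 came from nonlinear fits of % inhibition against controls.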

THP-1 cells = assay: THP-1 host cell count in intramacrophage Leishmania assay; format: cell-based; settings: Homo sapiens, host cell toxicity, read-out: THP1 pEC50 (converted)
Protocol: The intramacrophage Leishmania assay was performed as described in de Rycker et al (Antimicrob Agents Chemother, 2013 July; 57(7):2913-22. doi: 10.1128/AAC.02398-12). Briefly, 1 μl of compound was pre-dispensed into 384 well sterile intermediary plates. For single point screening, amphotericin B was added to all wells of column 24 as a positive control (final concentration 2 μM) and DMSO to column 23. For potency determinations, ten-point, one in three dilution curves were created with the highest concentration being 50 μM and on each plate a control curve of amphotericin B was included. Controls were as follows: columns 11 and 12: DMSO, columns 23 and 24: amphotericin B (final concentration 2 μM). To the intermediary plates, 100 μl of THP-1 media was added and plates were shaken for >5 min to ensure complete mixing. THP-1 cells (8,000 per well, 50 μl) were plated into black clear-bottom 384 well plates (Corning) in presence of 10 nM PMA. After 20 min at room temperature, the plates were incubated at 37° C. under 5% CO2 in a humidified incubator for 75 h. The cells were then washed with […] sterile phosphate buffered saline (PBS) supplemented with 1 mM CaCl2, 0.5 mM MgCl2, 0.1% (w/v) bovine serum albumin (PBS-A) and amastigotes were added to all wells at a multiplicity of infection of 5 (40,000 amastigotes per well). After 40 min at room temperature, plates were returned to the incubator. Amastigotes were incubated in the presence of macrophages for 16 h. Any remaining extracellular amastigotes were subsequently removed with an overflow wash of 1 ml PBS-A per well (wash buffer is being aspirated from the top of the well as it is being dispensed) followed by addition of 25 μl of the compound pre-dilutions using a Matrix Hydra DT pipetting station. The final dilution of each compound was 200-fold. Plates were incubated for 72 h and then washed (250 μl PBS-A) and fixed (4% (v/v) formaldehyde-PBS, 30 min, room temperature). After fixation, the wells were washed with 250 μl PBS, stained (10 μg/ml DAPI, 0.4 μg ml-1 HCS Cellmask Deep Red in PBS+0.1% (v/v) Triton X-100, 30 min, room temperature) and washed with 250 μl PBS. Finally, PBS+0.05% (v/v) thimerosal was added to the wells, the plates were sealed and imaged on a high-content microscope (GE IN Cell 1000 or GE IN Cell 2000) using a 10× objective. Image analysis was carried out with GE IN Cell Analyzer 1000 Workstation using the “Multi Target Analysis” module. Settings for segmentation were as follows: nuclei: minimum area: 142.384 μm^2, sensitivity: 81, method: top-hat; cells: characteristic area: 2500 μm^2, sensitivity: 60, method: multiscale top-hat; organelles (amastigotes): granule size 1-3, 3 scales, sensitivity: 90, detection in entire cell. […]

Leishmania donovani = Leishmania donovani intramacrophage inhibition assay (Ld-INMAC); format: cell-based; settings: intramacrophage amastigotes in THP-1 cells, read-out: Ld-INMAC pEC50 (converted)
Protocol: Assay Method for Measurement of In Vitro Inhibition of Leishmania donovani.
These experiments were run in accordance with the method as detailed herein and results from these experiments are provided in the Experimental Results hereinafter.
The intramacrophage Leishmania assay was performed as described in de Rycker et al (Antimicrob Agents Chemother, 2013 July; 57(7):2913-22. doi: 10.1128/AAC.02398-12). Briefly, 1 μl of compound was pre-dispensed into 384 well sterile intermediary plates. For single point screening, amphotericin B was added to all wells of column 24 as a positive control (final concentration 2 μM) and DMSO to column 23. For potency determinations, ten-point, one in three dilution curves were created with the highest concentration being 50 μM and on each plate a control curve of amphotericin B was included. Controls were as follows: columns 11 and 12: DMSO, columns 23 and 24: amphotericin B (final concentration 2 μM). To the intermediary plates, 100 μl of THP-1 media was added and plates were shaken for >5 min to ensure complete mixing. THP-1 cells (8,000 per well, 50 μl) were plated into black clear-bottom 384 well plates (Corning) in presence of 10 nM PMA. After 20 min at room temperature, the plates were incubated at 37° C. under 5% CO2 in a humidified incubator for 75 h. The cells were then washed with […] sterile phosphate buffered saline (PBS) supplemented with 1 mM CaCl2, 0.5 mM MgCl2, 0.1% (w/v) bovine serum albumin (PBS-A) and amastigotes were added to all wells at a multiplicity of infection of 5 (40,000 amastigotes per well). After 40 min at room temperature, plates were returned to the incubator. Amastigotes were incubated in the presence of macrophages for 16 h. Any remaining extracellular amastigotes were subsequently removed with an overflow wash of 1 ml PBS-A per well (wash buffer is being aspirated from the top of the well as it is being dispensed) followed by addition of 25 μl of the compound pre-dilutions using a Matrix Hydra DT pipetting station. The final dilution of each compound was 200-fold. Plates were incubated for 72 h and then washed (250 μl PBS-A) and fixed (4% (v/v) formaldehyde-PBS, 30 min, room temperature). After fixation, the wells were washed with 250 μl PBS, stained (10 μg/ml DAPI, 0.4 μg ml-1 HCS Cellmask Deep Red in PBS+0.1% (v/v) Triton X-100, 30 min, room temperature) and washed with 250 μl PBS. Finally, PBS+0.05% (v/v) thimerosal was added to the wells, the plates were sealed and imaged on a high-content microscope (GE IN Cell 1000 or GE IN Cell 2000) using a 10× objective. Image analysis was carried out with GE IN Cell Analyzer 1000 Workstation using the “Multi Target Analysis” module. […]

T1 sequence (Q8IDJ8 entry or part of it, looked up, natural form): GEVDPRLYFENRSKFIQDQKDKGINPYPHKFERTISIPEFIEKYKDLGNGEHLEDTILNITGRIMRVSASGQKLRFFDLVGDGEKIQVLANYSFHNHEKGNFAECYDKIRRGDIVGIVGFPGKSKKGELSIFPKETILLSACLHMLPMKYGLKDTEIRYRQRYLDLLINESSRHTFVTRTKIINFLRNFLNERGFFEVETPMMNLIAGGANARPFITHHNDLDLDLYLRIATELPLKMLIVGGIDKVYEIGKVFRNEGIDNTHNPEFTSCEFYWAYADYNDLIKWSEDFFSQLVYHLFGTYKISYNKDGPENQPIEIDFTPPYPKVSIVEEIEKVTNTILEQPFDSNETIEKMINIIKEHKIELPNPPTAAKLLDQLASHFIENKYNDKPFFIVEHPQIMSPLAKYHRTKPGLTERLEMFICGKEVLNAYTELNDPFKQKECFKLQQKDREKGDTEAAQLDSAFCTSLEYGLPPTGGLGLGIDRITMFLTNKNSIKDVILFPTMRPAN

## O=C(NCC1CCCCC1)c1cc(=O)c2cc(F)cc(O)c2o1 [Example 70, N-(cyclohexylmethyl)-6-fluoro-8-hydroxy-4-oxo-4H-chromene-2-carboxamide]
[1]
  IC50: 0.0501 µM
THP-1 cells
  EC50: 50.1 µM
Leishmania donovani
  EC50: 15.8 µM
